From patent publication US20260263596A1, “Programming B Cells to Produce IL-27 to Treat Inflammatory Diseases” (Board of Regents, The University of Texas System, priority 2022, published 2026)
Entries after “also recorded” stand apart in the source; their conditions may differ.

Tests used:
B cells [1] = experiment: IL-27 induction in B cells by innate priming followed by CD154 or αCD40 plus IL-21; assay type: cell-based, mouse; conditions: then CD154 or αCD40 plus IL-21; for priming of B cells for induction of Il27p28 and Ebi3: 30 μg/ml for 4 h; for IL-27 secretion / IL-27 induction by primed B cells: priming with CDN, compared with gold-standard LPS priming
STING [2] = conditions: cited from earlier work
STING [3] = target: STING (Homo sapiens, UniProt Q86WV6); conditions: relative to c-di-GMP; cited from earlier work
Chain of STING (Homo sapiens, UniProt Q86WV6) (Q86WV6 whole entry H232R, species assumed): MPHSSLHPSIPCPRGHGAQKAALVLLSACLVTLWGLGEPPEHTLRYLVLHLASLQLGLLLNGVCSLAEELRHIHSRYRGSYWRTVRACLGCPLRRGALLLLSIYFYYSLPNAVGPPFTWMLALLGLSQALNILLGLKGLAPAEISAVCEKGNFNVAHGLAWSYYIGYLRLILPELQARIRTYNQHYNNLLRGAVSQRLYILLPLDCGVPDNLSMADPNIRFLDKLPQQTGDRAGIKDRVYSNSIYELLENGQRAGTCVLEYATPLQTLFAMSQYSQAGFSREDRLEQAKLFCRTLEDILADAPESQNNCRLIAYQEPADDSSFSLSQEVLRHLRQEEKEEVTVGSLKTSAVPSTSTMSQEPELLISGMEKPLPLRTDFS

ILC3s = experiment: IL-27 stimulation of in vitro amplified ILC3s, FACS; assay type: cell-based, C57 mice
Description: FIG. 5A-5C. […] ILC3s were sort enriched (70%) by surface markers (IL-7R+CD45+Lin−CD117+ST2−) from mesenteric lymph nodes and cultured in the presence of IL-2 and IL-7 (to promote ILC survival) as well as IL-1B plus IL-23 (to promote ILC3 proliferation)—CD117 and ST2 are preferentially, albeit not exclusively, expressed by ILC3s and ILC2s, respectively. After 7 d of culture, ILCs were amplified by >10-fold and accounted for >95% of all cells. After washing to remove cytokines, ILC3s were stimulated with nil, IL-1P/IL-23 (to promote basal IL-22 expression in ILC3s) or IL-27 for 12 h. Cells were analyzed by FACS for expression of (A) T-bet, NKp46 and (B) IL-22, IL-17A and IFNγ, as quantified in (C).
Analyze the impact of recombinant IL-27 (in vitro) and B-27 cells (in vivo) on ILC3 gene protein expression. Tg(Rorc-cre)34 (JAX #022791) and Rosa26fl-STOP-fl-EYFP (JAX #006148) mice will be crossed to generate TgRorc-creRosa26fl-STOP-fl-EYFP mice, which will allow us to sort purify EYFP+IL-7R+CD45+Lin−CD117+ST2−ILC3s. Sorted ILC3s will be cultured in the presence of IL-7 and IL-2, which promote ILC survival, and stimulated them with recombinant IL-27 for 0 h, 6 h, 12 h and 24 h.

B cells [4] = conditions: cited from earlier work
[5] = test system: STAT transcription factors; experiment: STAT activation by human IL-27; assay type: cell-based
[6] = enriched, in vitro amplified ILC3s from C57 mice, 12 h

Nc1nc2c(ncn2[C@@H]2O[C@@H]3COP(=O)(O)O[C@H]4[C@@H](O)[C@H](n5cnc6c(=O)[nH]c(N)nc65)O[C@@H]4COP(=O)(O)O[C@H]3[C@H]2O)c(=O)[nH]1 [c-di-GMP, 3′-5′ c-di-GMP]
priming of B cells for induction of Il27p28 and Ebi3 (B cells [1]): sufficient
IL-27 secretion / IL-27 induction by primed B cells (B cells [1]): at the same magnitude as those of IL-27 induced by the gold-standard condition

cyclic GMP-AMP [cGAMP]
priming of B cells for induction of Il27p28 and Ebi3 (B cells [1]): sufficient
IL-27 secretion / IL-27 induction by primed B cells (B cells [1]): prime B cells for IL-27 induction by CD154; also recorded: at the same magnitude as those of IL-27 induced by the gold-standard condition

Nc1nc2c(ncn2[C@@H]2O[C@H](CO)[C@@H](O)[C@H]2OP(=O)(O)OC[C@H]2O[C@@H](n3cnc4c(N)ncnc43)[C@H](O)[C@@H]2OP(=O)(O)O)c(=O)[nH]1 [2′5′-GpAp, linear GMP-AMP]
IL-27 secretion / IL-27 induction by primed B cells (B cells [1]): inefficient
STING activation (STING [2]): does not activate STING

Nc1ncnc2c1ncn2[C@@H]1O[C@@H]2COP(=O)(O)O[C@H]3[C@@H](O)[C@H](n4cnc5c(N)ncnc54)O[C@@H]3COP(=O)(O)O[C@H]2[C@H]1O [c-di-AMP, 3′-5′ c-di-AMP]
IL-27 secretion / IL-27 induction by primed B cells (B cells [1]): inefficient
affinity to STING (STING [3]): much lower affinity to STING than c-di-GMP

B1: IL-27: pleiotropic cytokine, heterodimer of IL-27p28 and EBI3 (protein, UniProt Q8NEV9 29-243; Q14213 21-229, looked up)
Interleukin-27 subunit alpha: FPRPPGRPQLSLQELRREFTVSLHLARKLLSEVRGQAHRFAESHLPGVNLYLLPLGEQLPDVSLTFQAWRRLSDPERLCFISTTLQPFHALLGGLGTQGRWTNMERMQLWAMRLDLRDLQRHLRFQVLAAGFNLPEEEEEEEEEEEEERKGLLPGALGSALQGPAQVSWPQLLSTYRLLHSLELVLSRAVRELLLLSKAGHSVWPLGFPTLSPQP
Interleukin-27 subunit beta: RKGPPAALTLPRVQCRASRYPIAVDCSWTLPPAPNSTSPVSFIATYRLGMAARGHSWPCLQQTPTSTSCTITDVQLFSMAPYVLNVTAVHPWGSSSSFVPFITEHIIKPDPPEGVRLSPLAERQLQVQWEPPGSWPFPEIFSLKYWIRYKRQGAARFHRVGPIEATSFILRAVRPRARYYVQVAAQDLTDYGELSDWSLPATATMSLGK
IFNγ in ILC3s (ILC3s; [6]): did not affect
IL-17 in ILC3s (ILC3s; [6]): reduced
expression of IL-22 in ILC3s (ILC3s; [6]): upregulated
expression of T-bet in ILC3s (ILC3s; [6]): upregulated
polarization of ILC3s to express T-bet and IL-22 (ILC3s; in vitro): polarizes ILC3s to express T-bet and IL-22; also recorded: can polarize ILC3s in vitro to express T-bet and IL-22
STAT1/STAT3 activation, T-bet expression and IFNγ gene signature in B cells (B cells [4]): induce STAT1/STAT3 activation, T-bet expression, and IFNγ gene signature

B2: human IL-27: human cytokine IL-27 (protein, UniProt Q8NEV9 29-243; Q14213 21-229, looked up)
Interleukin-27 subunit alpha: FPRPPGRPQLSLQELRREFTVSLHLARKLLSEVRGQAHRFAESHLPGVNLYLLPLGEQLPDVSLTFQAWRRLSDPERLCFISTTLQPFHALLGGLGTQGRWTNMERMQLWAMRLDLRDLQRHLRFQVLAAGFNLPEEEEEEEEEEEEERKGLLPGALGSALQGPAQVSWPQLLSTYRLLHSLELVLSRAVRELLLLSKAGHSVWPLGFPTLSPQP
Interleukin-27 subunit beta: RKGPPAALTLPRVQCRASRYPIAVDCSWTLPPAPNSTSPVSFIATYRLGMAARGHSWPCLQQTPTSTSCTITDVQLFSMAPYVLNVTAVHPWGSSSSFVPFITEHIIKPDPPEGVRLSPLAERQLQVQWEPPGSWPFPEIFSLKYWIRYKRQGAARFHRVGPIEATSFILRAVRPRARYYVQVAAQDLTDYGELSDWSLPATATMSLGK
activation of STAT transcription factors [5]: can activate STAT transcription factors
